Results: US20220289708A1, “SUBSTITUTED N-PHENYL URACILS, SALTS THEREOF AND THEIR USE AS HERBICIDAL AGENTS” (Bayer Aktiengesellschaft, priority 2019, published 2022)

Key:
Assay type in all cases: in vivo
[1] = system: Abutilon theophrasti; experiment: Post-emergence herbicidal action; conditions: rated visually after about 3 weeks vs untreated controls
How it was run: (§1)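 Activity scored visually about 3 weeks post-spray against untreated plants, on a scale where 0% equals control and 100% equals dead plants. Compounds, as WP or EC with 0.5% additive in 600 l/ha water, were applied at 20 g/ha or less onto one-leaf-stage greenhouse plants sown 2–3 weeks earlier.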

[2] = system: Alopecurus myosuroides; experiment: Post-emergence herbicidal action; conditions: rated visually after about 3 weeks vs untreated controls
How it was run: as §1

[3] = system: Amaranthus retroflexus; experiment: Post-emergence herbicidal action; conditions: rated visually after about 3 weeks vs untreated controls
How it was run: as §1

[4] = system: Avena fatua; experiment: Post-emergence herbicidal action; conditions: application rate 20 g/ha, rated visually after about 3 weeks vs untreated controls
How it was run: as §1

[5] = system: Digitaria sanguinalis; experiment: Post-emergence herbicidal action; conditions: rated visually after about 3 weeks vs untreated controls
How it was run: as §1

[6] = system: Echinochloa crus-galli; experiment: Post-emergence herbicidal action; conditions: rated visually after about 3 weeks vs untreated controls
How it was run: as §1

[7] = system: Hordeum murinum; experiment: Post-emergence herbicidal action; conditions: application rate 20 g/ha
How it was run: as §1

[8] = system: Lolium rigidum; experiment: Post-emergence herbicidal action; conditions: application rate 20 g/ha, rated visually after about 3 weeks vs untreated controls
How it was run: as §1

[9] = system: Matricaria inodora; experiment: Post-emergence herbicidal action; conditions: rated visually after about 3 weeks vs untreated controls
How it was run: as §1

[10] = system: Pharbitis purpurea; experiment: Post-emergence herbicidal action; conditions: rated visually after about 3 weeks vs untreated controls
How it was run: as §1

[11] = system: Polygonum convolvulus; experiment: Post-emergence herbicidal action
How it was run: as §1

[12] = system: Setaria viridis; experiment: Post-emergence herbicidal action; conditions: rated visually after about 3 weeks vs untreated controls
How it was run: as §1

[13] = system: Stellaria media; experiment: Post-emergence herbicidal action; conditions: application rate 5 g/ha, rated visually after about 3 weeks vs untreated controls
How it was run: as §1

[14] = system: Veronica persica; experiment: Post-emergence herbicidal action
How it was run: as §1

[15] = system: Viola tricolor; experiment: Post-emergence herbicidal action
How it was run: as §1

[16] = system: Oryza sativa; experiment: Post-emergence crop plant compatibility
How it was run: (§2)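 Greenhouse crop plants in sandy loam sprayed at one-leaf stage (2-3 weeks after sowing) with WP or EC formulations plus 0.5% additive, 600 l/ha water, at 5 g/ha or 20 g/ha. Damage scored visually after about 3 weeks as % versus untreated controls (100% = plants dead).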

[17] = system: Zea mays; experiment: Post-emergence crop plant compatibility
How it was run: as §2

[18] = system: Triticum aestivum; experiment: Post-emergence crop plant compatibility; conditions: application rate 5 g/ha
How it was run: as §2

[19] = system: Abutilon theophrasti; experiment: Pre-emergence herbicidal action; conditions: application rate 20 g/ha
From the text: (§3) B. Pre-Emergence Herbicidal Action and Crop Plant Compatibility Seeds of monocotyledonous and dicotyledonous weed plants and crop plants were placed in plastic or organic planting pots and covered with soil. The compounds of the invention, formulated in the form of wettable powders (WP) or as emulsion concentrates (EC), were then applied to the surface of the covering soil as aqueous suspension or emulsion with addition of 0.5% additive at a water application rate equivalent to 600 l/ha (converted). After the treatment, the pots were placed in a greenhouse and kept under good growth conditions for the test plants. After about 3 weeks, the effect of the preparations was scored visually in comparison with untreated controls as percentages. For example, 100% activity=the plants have died, 0% activity=like control plants. Tables B1 to B13 below show the effects of selected compounds of the general formula (I) according to Tables I.1 to I.36 on various harmful plants and at an application rate corresponding to 80 g/ha or less, which were obtained by the experimental procedure mentioned above.

[20] = system: Alopecurus myosuroides; experiment: Pre-emergence herbicidal action; conditions: application rate 80 g/ha
From the text: as §3

[21] = system: Amaranthus retroflexus; experiment: Pre-emergence herbicidal action; conditions: application rate 20 g/ha
From the text: as §3

[22] = system: Avena fatua; experiment: Pre-emergence herbicidal action; conditions: application rate 80 g/ha
From the text: as §3

[23] = system: Digitaria sanguinalis; experiment: Pre-emergence herbicidal action; conditions: application rate 20 g/ha
From the text: as §3

[24] = system: Echinochloa crus-galli; experiment: Pre-emergence herbicidal action; conditions: application rate 80 g/ha
From the text: as §3

[25] = system: Lolium rigidum; experiment: Pre-emergence herbicidal action; conditions: application rate 80 g/ha
From the text: as §3

[26] = system: Matricaria inodora; experiment: Pre-emergence herbicidal action; conditions: application rate 20 g/ha
From the text: as §3

[27] = system: Pharbitis purpurea; experiment: Pre-emergence herbicidal action; conditions: application rate 20 g/ha
From the text: as §3

[28] = system: Polygonum convolvulus; experiment: Pre-emergence herbicidal action; conditions: application rate 20 g/ha
From the text: as §3

[29] = system: Setaria viridis; experiment: Pre-emergence herbicidal action; conditions: application rate 20 g/ha
From the text: as §3

[30] = system: Veronica persica; experiment: Pre-emergence herbicidal action; conditions: application rate 20 g/ha
From the text: as §3

[31] = system: Viola tricolor; experiment: Pre-emergence herbicidal action; conditions: application rate 20 g/ha
From the text: as §3

[32] = system: Zea mays; experiment: Pre-emergence crop plant compatibility; conditions: application rate 20 g/ha
From the text: B. Pre-Emergence Herbicidal Action and Crop Plant Compatibility
as §3, with “Seeds” for “B. Pre-Emergence Herbicidal Action and Crop Plant Compatibility Seeds”, “plants.” for “plants. Tables B1 to B13 below show the effects of selected compounds of the general formula (I) according to Tables I.1 to I.36 on various harmful plants and at an application rate corresponding to 80 g/ha or less, which were obtained by the experimental procedure mentioned above.”
Tables B14 to B16 below show the crop plant compatibilities of selected compounds of the general formula (I) according to Tables I.1 to I.36 at an application rate corresponding to 20 g/ha, which were obtained in experiments according to the experimental procedure mentioned above. Here, the observed effects on selected crop plants are stated in comparison to the untreated controls (values in %).

Cn1c(C(F)(F)F)cc(=O)n(-c2cc(Sc3cccnc3SCC(=O)OCC3CCCO3)c(Cl)cc2F)c1=O (stereo not drawn) [I.10-71]
90%: Digitaria sanguinalis (efficacy in %) ([5]; application rate 5 g/ha) | Veronica persica (efficacy in %) ([14]; application rate 5 g/ha)
20%: Oryza sativa (efficacy in %) ([16]; application rate 5 g/ha) | Zea mays (efficacy in %) ([17]; application rate 5 g/ha)
100%: Abutilon theophrasti (efficacy in %) ([1]; application rate 5 g/ha) | Amaranthus retroflexus (efficacy in %) ([3]; application rate 5 g/ha) | Echinochloa crus-galli (efficacy in %) ([6]; application rate 5 g/ha) | Pharbitis purpurea (efficacy in %) ([10]; application rate 5 g/ha) | Polygonum convolvulus (efficacy in %) ([11]; application rate 5 g/ha) | Setaria viridis (efficacy in %) ([12]; application rate 5 g/ha) | Stellaria media (efficacy in %) [13] | Viola tricolor (efficacy in %) ([15]; application rate 5 g/ha)
80%: Alopecurus myosuroides (efficacy in %) ([2]; application rate 5 g/ha) | Avena fatua (efficacy in %) [4] | Hordeum murinum (efficacy in %) [7] | Lolium rigidum (efficacy in %) [8] | Matricaria inodora (efficacy in %) ([9]; application rate 5 g/ha)

COCCOC(=O)COc1ncccc1Oc1cc(-n2c(=O)cc(C(F)(F)F)n(C)c2=O)c(F)cc1[N+](=O)[O-] [I.14-1]
10%: Zea mays (efficacy in %) ([17]; application rate 5 g/ha)
80%: Avena fatua (efficacy in %) [4] | Lolium rigidum (efficacy in %) [8]
100%: Abutilon theophrasti (efficacy in %) ([1]; application rate 20 g/ha) | Amaranthus retroflexus (efficacy in %) ([3]; application rate 20 g/ha) | Digitaria sanguinalis (efficacy in %) ([5]; application rate 20 g/ha) | Echinochloa crus-galli (efficacy in %) ([6]; application rate 20 g/ha) | Matricaria inodora (efficacy in %) ([9]; application rate 20 g/ha) | Pharbitis purpurea (efficacy in %) ([10]; application rate 20 g/ha) | Polygonum convolvulus (efficacy in %) ([11]; application rate 20 g/ha) | Setaria viridis (efficacy in %) ([12]; application rate 20 g/ha) | Veronica persica (efficacy in %) ([14]; application rate 20 g/ha) | Viola tricolor (efficacy in %) ([15]; application rate 20 g/ha)
0%: Oryza sativa (efficacy in %) ([16]; application rate 5 g/ha)
90%: Alopecurus myosuroides (efficacy in %) ([2]; application rate 20 g/ha)

CCOCCOC(=O)COc1ncccc1Oc1cc(-n2c(=O)cc(C(F)(F)F)n(C)c2=O)c(F)cc1[N+](=O)[O-] [I.14-2]
10%: Oryza sativa (efficacy in %) ([16]; application rate 20 g/ha)
90%: Lolium rigidum (efficacy in %) [8]
100%: Abutilon theophrasti (efficacy in %) ([1]; application rate 20 g/ha) | Alopecurus myosuroides (efficacy in %) ([2]; application rate 20 g/ha) | Amaranthus retroflexus (efficacy in %) ([3]; application rate 20 g/ha) | Avena fatua (efficacy in %) [4] | Digitaria sanguinalis (efficacy in %) ([5]; application rate 20 g/ha) | Echinochloa crus-galli (efficacy in %) ([6]; application rate 20 g/ha) | Matricaria inodora (efficacy in %) ([9]; application rate 20 g/ha) | Pharbitis purpurea (efficacy in %) ([10]; application rate 20 g/ha) | Setaria viridis (efficacy in %) ([12]; application rate 20 g/ha) | Veronica persica (efficacy in %) ([14]; application rate 20 g/ha) | Viola tricolor (efficacy in %) ([15]; application rate 20 g/ha)
20%: Zea mays (efficacy in %) ([17]; application rate 5 g/ha)

COCCOCCOC(=O)COc1ncccc1Oc1cc(-n2c(=O)cc(C(F)(F)F)n(C)c2=O)c(F)cc1[N+](=O)[O-] [I.14-23]
10%: Oryza sativa (efficacy in %) ([16]; application rate 20 g/ha) | Zea mays (efficacy in %) ([17]; application rate 20 g/ha)
100%: Abutilon theophrasti (efficacy in %) ([1]; application rate 20 g/ha) | Amaranthus retroflexus (efficacy in %) ([3]; application rate 20 g/ha) | Digitaria sanguinalis (efficacy in %) ([5]; application rate 20 g/ha) | Echinochloa crus-galli (efficacy in %) ([6]; application rate 20 g/ha) | Matricaria inodora (efficacy in %) ([9]; application rate 20 g/ha) | Pharbitis purpurea (efficacy in %) ([10]; application rate 20 g/ha) | Polygonum convolvulus (efficacy in %) ([11]; application rate 20 g/ha) | Setaria viridis (efficacy in %) ([12]; application rate 20 g/ha) | Veronica persica (efficacy in %) ([14]; application rate 20 g/ha) | Viola tricolor (efficacy in %) ([15]; application rate 20 g/ha)

Cn1c(C(F)(F)F)cc(=O)n(-c2cc(Oc3cccnc3OCC(=O)OC3COC3)c([N+](=O)[O-])cc2F)c1=O [I.14-115]
100%: Alopecurus myosuroides (efficacy in %) ([2]; application rate 20 g/ha) | Amaranthus retroflexus (efficacy in %) ([3]; application rate 20 g/ha) | Digitaria sanguinalis (efficacy in %) ([5]; application rate 20 g/ha) | Echinochloa crus-galli (efficacy in %) ([6]; application rate 20 g/ha) | Matricaria inodora (efficacy in %) ([9]; application rate 20 g/ha) | Pharbitis purpurea (efficacy in %) ([10]; application rate 20 g/ha) | Polygonum convolvulus (efficacy in %) ([11]; application rate 20 g/ha) | Setaria viridis (efficacy in %) ([12]; application rate 20 g/ha) | Veronica persica (efficacy in %) ([14]; application rate 20 g/ha) | Viola tricolor (efficacy in %) ([15]; application rate 20 g/ha)
20%: Oryza sativa (efficacy in %) ([16]; application rate 20 g/ha) | Zea mays (efficacy in %) ([17]; application rate 5 g/ha)
80%: Avena fatua (efficacy in %) [4]

Cn1c(C(F)(F)F)cc(=O)n(-c2cc(Oc3cccnc3OCC(=O)OCc3ccc(C(F)(F)F)nc3)c(Cl)cc2F)c1=O [I.15-350, [6-(Trifluoromethyl)pyridin-3-yl]methyl [(3-{2-chloro-4-fluoro-5-[3-methyl-2,6-dioxo-4-(trifluoromethyl)-3,6-dihydropyrimidin-1(2H)-yl]phenoxy}pyridin-2-yl)oxy]acetate]
80%: Matricaria inodora (efficacy in %) ([9]; application rate 5 g/ha)
0%: Zea mays (efficacy in %) [32]
100%: Abutilon theophrasti (efficacy in %) ([1]; application rate 5 g/ha) | Amaranthus retroflexus (efficacy in %) ([3]; application rate 5 g/ha) | Echinochloa crus-galli (efficacy in %) ([6]; application rate 5 g/ha) | Pharbitis purpurea (efficacy in %) ([10]; application rate 5 g/ha) | Veronica persica (efficacy in %) ([14]; application rate 5 g/ha) | Abutilon theophrasti (efficacy in %) [19] | Alopecurus myosuroides (efficacy in %) [20] | Amaranthus retroflexus (efficacy in %) [21] | Avena fatua (efficacy in %) [22] | Digitaria sanguinalis (efficacy in %) [23] | Echinochloa crus-galli (efficacy in %) [24] | Lolium rigidum (efficacy in %) [25] | Matricaria inodora (efficacy in %) [26] | Pharbitis purpurea (efficacy in %) [27] | Polygonum convolvulus (efficacy in %) [28] | Setaria viridis (efficacy in %) [29] | Veronica persica (efficacy in %) [30] | Viola tricolor (efficacy in %) [31]
20%: Oryza sativa (efficacy in %) ([16]; application rate 5 g/ha) | Triticum aestivum (efficacy in %) [18]
